Molecular target: P2Y purinoceptor 1 (Homo sapiens) (UniProt P47900)
Assay: Concenthumanion required for calcium mobilization at human purinergic 2Y1 receptor expressed in HEK 293 cells

Sequence of P2Y purinoceptor 1 (Homo sapiens) (P47900 whole entry, looked up): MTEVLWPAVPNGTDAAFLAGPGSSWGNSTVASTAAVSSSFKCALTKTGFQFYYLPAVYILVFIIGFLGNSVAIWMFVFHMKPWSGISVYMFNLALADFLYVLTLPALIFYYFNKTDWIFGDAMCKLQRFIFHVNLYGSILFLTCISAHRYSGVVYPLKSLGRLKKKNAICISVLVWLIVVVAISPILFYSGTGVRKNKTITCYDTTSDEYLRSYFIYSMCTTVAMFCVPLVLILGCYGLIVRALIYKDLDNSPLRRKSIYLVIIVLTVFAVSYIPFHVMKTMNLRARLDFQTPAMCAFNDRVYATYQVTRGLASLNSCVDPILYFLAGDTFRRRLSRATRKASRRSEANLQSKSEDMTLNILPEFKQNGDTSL

| SMILES | EC50 [nM] |
| --- | --- |
| CSc1nc(N)c2ncn([C@@H]3O[C@H](COP(=O)(O)OP(=O)(O)OP(=O)(O)O)[C@@H](O)[C@H]3O)c2n1 | 1 |
| Nc1ncnc2c1ncn2C1O[C@H](CO[P@](O)(=S)OP(=O)(O)OP(=O)(O)O)[C@@H](O)[C@H]1O (stereo partly specified) | 9.4 |
| CSc1nc(N)c2ncn(C3O[C@H](CO[P@@](O)(=S)OP(=O)(O)OP(=O)(O)O)[C@@H](O)[C@H]3O)c2n1 (stereo partly specified) | 20 |
| Nc1ncnc2c1ncn2C1O[C@H](CO[P@@](O)(=S)OP(=O)(O)OP(=O)(O)O)[C@@H](O)[C@H]1O (stereo partly specified) | 75 |
| CSc1nc(N)c2ncn(C3O[C@H](CO[P@](O)(=S)OP(=O)(O)OP(=O)(O)O)[C@@H](O)[C@H]3O)c2n1 (stereo partly specified) | 1 |
| BP(=O)(OC[C@H]1O[C@@H](n2cnc3c(N)nc(SC)nc32)[C@H](O)[C@@H]1O)OP(=O)(O)OP(=O)(O)O (stereo partly specified) | 53 |
